Measured values published in the NIST ThermoML archive (doi:10.1021/je100765j).

Experiment: xn = mol fraction of the nth substance listed
Conditions: 101 kPa, Liquid; for speed of sound: Sing-around technique in a fixed-path interferometer

CCCCCl [1-chlorobutane] + CC(C)OC(C)C
Conditions	mass density [kg/m3]	speed of sound [m/s]
283.15 K, x1 = 0.0466	740.095	1070.9
283.15 K, x1 = 0.0991	747.139	1076.6
283.15 K, x1 = 0.1918	759.833	1087
283.15 K, x1 = 0.32	778.726	1101.5
283.15 K, x1 = 0.4199	793.339	1112.3
283.15 K, x1 = 0.516	808.586	1123.3
283.15 K, x1 = 0.623	826.434	1135.5
283.15 K, x1 = 0.7154	842.63	1146.3
283.15 K, x1 = 0.8157	861.003	1158.2
283.15 K, x1 = 0.9098	879.099	1169.3
283.15 K, x1 = 0.9559	888.28	1174.9
288.15 K, x1 = 0.0466	734.99	1048.6
288.15 K, x1 = 0.0991	741.966	1054.3
288.15 K, x1 = 0.1918	754.629	1064.7
288.15 K, x1 = 0.32	773.471	1079.4
288.15 K, x1 = 0.4199	788.055	1090.3
288.15 K, x1 = 0.516	803.274	1101.5
288.15 K, x1 = 0.623	821.073	1114
288.15 K, x1 = 0.7154	837.246	1125
288.15 K, x1 = 0.8157	855.588	1137
288.15 K, x1 = 0.9098	873.635	1148.4
288.15 K, x1 = 0.9559	882.81	1154.2
293.15 K, x1 = 0.0466	729.792	1026.2
293.15 K, x1 = 0.0991	736.75	1032
293.15 K, x1 = 0.1918	749.383	1042.5
293.15 K, x1 = 0.32	768.192	1057.3
293.15 K, x1 = 0.4199	782.731	1068.4
293.15 K, x1 = 0.516	797.924	1079.7
293.15 K, x1 = 0.623	815.68	1092.4
293.15 K, x1 = 0.7154	831.821	1103.6
293.15 K, x1 = 0.8157	850.133	1115.9
293.15 K, x1 = 0.9098	868.142	1127.6
293.15 K, x1 = 0.9559	877.303	1133.4
298.15 K, x1 = 0.0466	724.56	1003.8
298.15 K, x1 = 0.0991	731.492	1009.7
298.15 K, x1 = 0.1918	744.091	1020.2
298.15 K, x1 = 0.32	762.854	1035.2
298.15 K, x1 = 0.4199	777.351	1046.6
298.15 K, x1 = 0.516	792.506	1058
298.15 K, x1 = 0.623	810.177	1071
298.15 K, x1 = 0.7154	826.321	1082.3
298.15 K, x1 = 0.8157	844.587	1094.8
298.15 K, x1 = 0.9098	862.556	1106.6
298.15 K, x1 = 0.9559	871.691	1112.7
303.15 K, x1 = 0.0466	719.283	981.56
303.15 K, x1 = 0.0991	726.204	987.54
303.15 K, x1 = 0.1918	738.777	998.37
303.15 K, x1 = 0.32	757.526	1013.6
303.15 K, x1 = 0.4199	771.984	1024.8
303.15 K, x1 = 0.516	787.119	1036.5
303.15 K, x1 = 0.623	804.761	1049.6
303.15 K, x1 = 0.7154	820.882	1061.1
303.15 K, x1 = 0.8157	839.124	1073.8
303.15 K, x1 = 0.9098	857.076	1085.9
303.15 K, x1 = 0.9559	866.204	1092
308.15 K, x1 = 0.0466	713.967	959.5
308.15 K, x1 = 0.0991	720.87	965.54
308.15 K, x1 = 0.1918	733.414	976.43
308.15 K, x1 = 0.32	752.126	991.71
308.15 K, x1 = 0.4199	766.553	1003.3
308.15 K, x1 = 0.516	781.656	1015
308.15 K, x1 = 0.623	799.266	1028.4
308.15 K, x1 = 0.7154	815.358	1040.1
308.15 K, x1 = 0.8157	833.567	1053
308.15 K, x1 = 0.9098	851.486	1065.3
308.15 K, x1 = 0.9559	860.595	1071.5
313.15 K, x1 = 0.0466	708.604	937.74
313.15 K, x1 = 0.0991	715.486	943.72
313.15 K, x1 = 0.1918	728.002	954.72
313.15 K, x1 = 0.32	746.649	970.22
313.15 K, x1 = 0.4199	761.063	981.83
313.15 K, x1 = 0.516	776.136	993.77
313.15 K, x1 = 0.623	793.704	1007.3
313.15 K, x1 = 0.7154	809.769	1019.1
313.15 K, x1 = 0.8157	827.935	1032.2
313.15 K, x1 = 0.9098	845.816	1044.8
313.15 K, x1 = 0.9559	854.913	1051.1

CC(C)(C)Cl [2-chloro-2-methylpropane] + CC(C)OC(C)C
Conditions	mass density [kg/m3]	speed of sound [m/s]
283.15 K, x1 = 0.049	738.51	1064.9
283.15 K, x1 = 0.0996	743.477	1064.1
283.15 K, x1 = 0.1991	753.625	1062.7
283.15 K, x1 = 0.3212	766.738	1060.7
283.15 K, x1 = 0.4189	777.752	1059.1
283.15 K, x1 = 0.5148	789.053	1057.4
283.15 K, x1 = 0.6213	802.211	1055.4
283.15 K, x1 = 0.7152	814.386	1053.5
283.15 K, x1 = 0.8138	827.84	1051.4
283.15 K, x1 = 0.9079	841.342	1049.2
283.15 K, x1 = 0.9552	848.393	1048.1
288.15 K, x1 = 0.049	733.338	1042.5
288.15 K, x1 = 0.0996	738.271	1041.8
288.15 K, x1 = 0.1991	748.35	1040.4
288.15 K, x1 = 0.3212	761.373	1038.5
288.15 K, x1 = 0.4189	772.305	1037
288.15 K, x1 = 0.5148	783.527	1035.4
288.15 K, x1 = 0.6213	796.59	1033.5
288.15 K, x1 = 0.7152	808.683	1031.8
288.15 K, x1 = 0.8138	822.038	1029.8
288.15 K, x1 = 0.9079	835.444	1027.7
288.15 K, x1 = 0.9552	842.442	1026.6
293.15 K, x1 = 0.049	728.121	1020
293.15 K, x1 = 0.0996	733.024	1019.4
293.15 K, x1 = 0.1991	743.024	1018
293.15 K, x1 = 0.3212	755.959	1016.3
293.15 K, x1 = 0.4189	766.815	1014.9
293.15 K, x1 = 0.5148	777.959	1013.4
293.15 K, x1 = 0.6213	790.929	1011.6
293.15 K, x1 = 0.7152	802.935	1010
293.15 K, x1 = 0.8138	816.189	1008.1
293.15 K, x1 = 0.9079	829.491	1006.1
293.15 K, x1 = 0.9552	836.437	1005.1
298.15 K, x1 = 0.049	722.867	997.71
298.15 K, x1 = 0.0996	727.738	997.09
298.15 K, x1 = 0.1991	737.666	995.89
298.15 K, x1 = 0.3212	750.506	994.32
298.15 K, x1 = 0.4189	761.286	993.03
298.15 K, x1 = 0.5148	772.351	991.68
298.15 K, x1 = 0.6213	785.228	990.11
298.15 K, x1 = 0.7152	797.145	988.62
298.15 K, x1 = 0.8138	810.301	986.91
298.15 K, x1 = 0.9079	823.502	985.13
298.15 K, x1 = 0.9552	830.397	984.18
303.15 K, x1 = 0.049	717.578	975.46
303.15 K, x1 = 0.0996	722.411	974.84
303.15 K, x1 = 0.1991	732.264	973.65
303.15 K, x1 = 0.3212	745.015	972.13
303.15 K, x1 = 0.4189	755.716	970.88
303.15 K, x1 = 0.5148	766.702	969.59
303.15 K, x1 = 0.6213	779.48	968.1
303.15 K, x1 = 0.7152	791.311	966.67
303.15 K, x1 = 0.8138	804.371	965.04
303.15 K, x1 = 0.9079	817.469	963.34
303.15 K, x1 = 0.9552	824.312	962.38
308.15 K, x1 = 0.049	712.24	953.42
308.15 K, x1 = 0.0996	717.041	952.84
308.15 K, x1 = 0.1991	726.821	951.71
308.15 K, x1 = 0.3212	739.479	950.28
308.15 K, x1 = 0.4189	750.102	949.13
308.15 K, x1 = 0.5148	761.005	947.93
308.15 K, x1 = 0.6213	773.688	946.56
308.15 K, x1 = 0.7152	785.433	945.25
308.15 K, x1 = 0.8138	798.394	943.74
308.15 K, x1 = 0.9079	811.393	942.17
308.15 K, x1 = 0.9552	818.179	941.27
313.15 K, x1 = 0.049	706.86	931.51
313.15 K, x1 = 0.0996	711.627	930.96
313.15 K, x1 = 0.1991	721.331	929.87
313.15 K, x1 = 0.3212	733.893	928.52
313.15 K, x1 = 0.4189	744.44	927.44
313.15 K, x1 = 0.5148	755.257	926.35
313.15 K, x1 = 0.6213	767.848	925.1
313.15 K, x1 = 0.7152	779.502	923.88
313.15 K, x1 = 0.8138	792.364	922.47
313.15 K, x1 = 0.9079	805.264	921
313.15 K, x1 = 0.9552	811.999	920.15
